Test results reported in PMC12715762, “Discovery of VU6052254: A Novel, Potent M1 Positive Allosteric Modulator” (ACS Chemical Neuroscience, 2025).
Substitutions are numbered along the chain they refer to. Values after ≈ are worked out from the molar mass of the structure shown. Values joined by “and” are separate entries in the source; they are usually repeats but may differ in a detail not shown here. Identical values can stand only once. Like-named read-outs stand apart in the source and are kept apart here.

Experiments:
[1] = target: T1, rat M1 (Rattus norvegicus, UniProt P08482); assay: M1 PAM calcium mobilization assay (rat); format: cell-based; conditions: for rM1 PAM AChmax (%): rat M1, % ACh max, n = 5; for EC50: rat M1, n = 5, read-out: rM1 PAM EC50
T1 construct: expressed in transfected cells
T1 sequence (P08482 1-460): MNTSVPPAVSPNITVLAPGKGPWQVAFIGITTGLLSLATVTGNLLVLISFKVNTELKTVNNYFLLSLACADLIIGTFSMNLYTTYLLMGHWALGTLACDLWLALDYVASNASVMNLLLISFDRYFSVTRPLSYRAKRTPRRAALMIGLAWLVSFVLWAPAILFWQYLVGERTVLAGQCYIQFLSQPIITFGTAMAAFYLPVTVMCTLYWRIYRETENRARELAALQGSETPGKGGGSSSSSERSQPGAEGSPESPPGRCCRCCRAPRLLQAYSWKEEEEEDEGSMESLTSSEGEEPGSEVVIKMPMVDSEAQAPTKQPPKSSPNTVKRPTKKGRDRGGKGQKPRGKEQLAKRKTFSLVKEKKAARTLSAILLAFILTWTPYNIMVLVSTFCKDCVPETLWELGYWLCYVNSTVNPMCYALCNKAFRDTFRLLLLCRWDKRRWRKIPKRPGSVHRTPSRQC

[2] = kinetic / aqueous solubility; format: physicochemical; conditions: for solubility kinetic: aqueous medium, kinetic from dmso stock
[3] = target: T2, MDCK-MDR1 (P-gp) (Homo sapiens, UniProt P08183); assay: MDCK-MDR1 permeability and efflux; format: in vitro ADME; set-up: Papp at 2 h / efflux ratio at 2 h: dose or concentration left out as unconfirmed; conditions: MDCK-MDR1
T2 construct: host or cells: MDR1-MDCK cell monolayers
T2 sequence (P08183 whole entry): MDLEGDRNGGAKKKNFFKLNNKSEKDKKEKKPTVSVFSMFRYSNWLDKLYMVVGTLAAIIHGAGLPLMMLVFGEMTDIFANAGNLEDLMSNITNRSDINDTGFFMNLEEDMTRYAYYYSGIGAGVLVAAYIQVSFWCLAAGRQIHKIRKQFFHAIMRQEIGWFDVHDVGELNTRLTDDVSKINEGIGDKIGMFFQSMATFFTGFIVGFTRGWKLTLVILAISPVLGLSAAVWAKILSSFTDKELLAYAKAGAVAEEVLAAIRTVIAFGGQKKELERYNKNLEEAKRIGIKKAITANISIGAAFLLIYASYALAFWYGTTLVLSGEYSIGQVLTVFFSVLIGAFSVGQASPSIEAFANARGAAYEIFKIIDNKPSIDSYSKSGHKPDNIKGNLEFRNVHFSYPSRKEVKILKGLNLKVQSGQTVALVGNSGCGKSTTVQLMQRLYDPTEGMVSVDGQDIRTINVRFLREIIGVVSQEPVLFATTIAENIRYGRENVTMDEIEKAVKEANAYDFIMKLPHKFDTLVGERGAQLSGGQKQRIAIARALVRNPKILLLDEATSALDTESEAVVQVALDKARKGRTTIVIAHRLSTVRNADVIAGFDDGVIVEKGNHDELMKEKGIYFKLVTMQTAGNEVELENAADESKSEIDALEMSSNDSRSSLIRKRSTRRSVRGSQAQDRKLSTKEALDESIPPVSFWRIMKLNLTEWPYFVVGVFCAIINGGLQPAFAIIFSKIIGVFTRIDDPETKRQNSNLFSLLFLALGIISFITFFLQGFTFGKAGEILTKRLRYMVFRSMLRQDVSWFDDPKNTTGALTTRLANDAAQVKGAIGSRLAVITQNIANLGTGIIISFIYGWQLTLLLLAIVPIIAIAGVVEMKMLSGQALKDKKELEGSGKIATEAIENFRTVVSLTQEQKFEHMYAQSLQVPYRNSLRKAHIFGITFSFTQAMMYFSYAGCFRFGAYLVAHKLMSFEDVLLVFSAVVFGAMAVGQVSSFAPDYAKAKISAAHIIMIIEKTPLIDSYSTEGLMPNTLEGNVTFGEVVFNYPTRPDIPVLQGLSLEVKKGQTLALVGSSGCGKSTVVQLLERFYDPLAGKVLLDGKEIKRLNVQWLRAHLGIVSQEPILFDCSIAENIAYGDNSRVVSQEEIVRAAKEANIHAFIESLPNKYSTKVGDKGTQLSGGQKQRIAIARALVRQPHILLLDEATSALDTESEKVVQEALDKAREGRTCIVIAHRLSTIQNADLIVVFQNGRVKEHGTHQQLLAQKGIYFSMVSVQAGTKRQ
Method: (§1) min, with an isocratic hold for 0.5 min, before transitioning to 10% B over 0.05 min. The column was re-equilibrated (1 min) before the next sample injection. The total run time was 2.55 min, and the HPLC flow rate was 0.5 ml/min. The source temperature was set at 500 °C, and mass spectral analyses were performed using a Turbo-Ion spray source in positive ionization mode (5.0-kV spray voltage) and using multiple-reaction monitoring of transitions specific for the analytes. All data were analyzed using AB Sciex Analyst 1.5.1 software. […]
(§2) In-vitro determination of blood-brain barrier penetration potential
(§3) Blood-brain barrier penetration was determined using MDR1-MDCK cell monolayers by Absorption Systems, following their protocol. In short, compounds were incubated at […] final concentration on one side of the cell monolayer for 2 hours. Compounds concentration on either side of the monolayer was determined by LC-MS/MS and apparent permeability and efflux ratio

[4] = target: T3, P-gp (MDR1) (Homo sapiens, UniProt P08183); assay: MDCK-MDR1 permeability and efflux; format: in vitro ADME; set-up: Papp at 2 h / efflux ratio at 2 h: dose or concentration left out as unconfirmed; conditions: dog; for efflux ratio at 2 h: MDCK-MDR1 efflux ratio, read-out: P-gp ER
T3 construct: host or cells: MDR1-MDCK cell monolayers
T3 sequence (P08183 whole entry): as above
Method: as §1, §2, §3

[5] = target: T4, human M1 (Homo sapiens, UniProt P11229); assay: M1 PAM calcium mobilization assay (human); format: cell-based; conditions: for hM1 PAM AChmax (%): human M1, % ACh max, n = 9
T4 sequence (P11229 1-460): T1 sequence (P08482 1-460) with V5A, S254T, S309P, K320R, G337A, V413I
Method: Procedures for Biological Experiments
Calcium mobilization assays:
All functional cell-based assays were performed in stable Chinese Hamster Ovary (CHO) cell lines constitutively expressing human M5 or human M1 receptors. For full muscarinic selectivity, CHO cells expressing human M3, human M2 plus Gqi5 or human M4 plus Gqi5 were used. Cells were plated at 15,000 cells per 20 µL per well in black 384-well, TC-treated, clear-bottomed plates (Greiner) in Ham’s F12 medium supplemented with 10% FBS and 20 mM HEPES. Cells were incubated overnight at 37 °C under 5% CO2. The following day, the medium was removed and replaced with 1.2 µM Fluo-4 AM (Invitrogen) in assay buffer (Hank’s Balanced Salt Solution supplemented with 20 mM HEPES and 2.5 mM Probenecid, pH 7.4) and the cells were incubated for 50 minutes at 37 °C under 5% CO2. Dye was then removed and replaced with 20 µL of fresh assay buffer. Test compounds at a 10 mM concentration in DMSO were serially diluted in DMSO (either 1:3 or 1:5 dilution) to create a 10-point concentration series. The DMSO solutions were then diluted in assay buffer resulting in compound solutions at 2-times the final assay concentration with the highest assay concentration of 30 µM. The compound plate, cell plate, and plates containing EC20 and EC80 acetylcholine concentrations were placed in a Hamamatsu FDSS 6000 or 7000 kinetic imaging plate reader equipped to measure Ex480/Em540 fluorescence. Data were collected at 1 frame per second. After 2 seconds of collecting baseline fluorescence, 20 µL of the compound solutions were added to the cell plate. This was followed by the addition of an EC20 concentration of acetylcholine at 142 seconds. […] The fluorescence signal was collected for a total of 300 seconds. […] Data were imported and analyzed in Dotmatics Informatics software. by normalizing all data in the individual kinetic traces to the initial fluorescence read. The magnitude of each agonist addition was then determined and normalized to the average maximum response. […] The IC50 determined using the EC80 of acetylcholine is the value reported. […]

[6] = target: Glucocorticoid (Homo sapiens, UniProt P04150); assay: Eurofins radioligand binding
Chain of Glucocorticoid (P04150 whole entry): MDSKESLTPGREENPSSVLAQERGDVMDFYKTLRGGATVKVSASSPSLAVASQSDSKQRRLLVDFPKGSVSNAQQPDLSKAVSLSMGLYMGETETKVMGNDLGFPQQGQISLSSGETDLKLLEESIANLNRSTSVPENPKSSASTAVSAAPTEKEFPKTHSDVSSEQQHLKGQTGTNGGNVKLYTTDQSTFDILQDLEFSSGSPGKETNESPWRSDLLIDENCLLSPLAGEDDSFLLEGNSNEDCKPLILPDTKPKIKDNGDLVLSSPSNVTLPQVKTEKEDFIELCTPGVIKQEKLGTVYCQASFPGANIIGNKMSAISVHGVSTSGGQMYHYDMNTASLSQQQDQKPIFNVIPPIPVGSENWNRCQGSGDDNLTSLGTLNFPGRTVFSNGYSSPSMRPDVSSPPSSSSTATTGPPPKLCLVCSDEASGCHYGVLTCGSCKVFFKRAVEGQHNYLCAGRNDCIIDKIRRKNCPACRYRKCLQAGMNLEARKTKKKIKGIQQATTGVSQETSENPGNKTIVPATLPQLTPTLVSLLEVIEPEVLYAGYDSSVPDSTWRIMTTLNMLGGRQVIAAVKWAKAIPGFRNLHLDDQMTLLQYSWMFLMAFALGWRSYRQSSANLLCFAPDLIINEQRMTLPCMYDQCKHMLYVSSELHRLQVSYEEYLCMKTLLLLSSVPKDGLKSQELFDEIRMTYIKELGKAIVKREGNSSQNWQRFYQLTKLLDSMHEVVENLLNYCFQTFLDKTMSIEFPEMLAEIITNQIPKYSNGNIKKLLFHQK

[7] = pH 2.2, pH 2.2, aqueous buffer, read-out: Kinetic solubility (pH = 2.2)
[8] = pH 6.8, pH 6.8, aqueous buffer, read-out: Kinetic solubility (pH = 6.8)

Compound | rM1 PAM AChmax (%) [1] | EC50 [1] | solubility kinetic [2, 7] | solubility kinetic [2, 8] | aqueous solubility ([2]; result in words) | Papp [3] | efflux ratio at 2 h [4] | hM1 PAM AChmax (%) [5] | inhibition at 10 µM [6] | Papp at 2 h ([4]; MDCK-MDR1, MDCK-MDR1) | EC50 ([5]; human M1, n = 9, read-out: hM1 PAM EC50)
Cn1cc2c(-c3cc(F)c(CN4Cc5ncccc5C4=O)c(F)c3)cccc2n1 [compound 1, reference compound] | 81% | 0.398 µM | 80.1 µM (≈ 31.3 µg/mL) | 9.75 µM (≈ 3.81 µg/mL) | low aqueous solubility | 310 nm/s | 1.6 | 71% |  |  | 
Cn1cc2c(-c3cc(F)c(CN4Cc5ncccc5C4=O)c(F)c3)ccc(C(C)(C)O)c2n1 [compound 7] | 94% | 0.078 µM | 81.5 µM (≈ 36.6 µg/mL) | 67.8 µM (≈ 30.4 µg/mL) |  | 231 nm/s | 1.97 | 78% and 80% | 9% | 230 nm/s | 0.059 µM
